Experimental data from ChEMBL document CHEMBL1201861, “Genomics of Drug Sensitity in Cancer screening data, Wellcome Trust Sanger Institute”.

Columns and labels:
Assay in all cases: cells
HDLM-2 = type: functional, cell-based, Homo sapiens; conditions: Homo sapiens, HDLM-2;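 note: cell viability assay measuring suppression of HDLM-2 proliferation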
SNB-75 = type: functional, cell-based, Homo sapiens; conditions: Homo sapiens, SNB-75;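 note: cell viability assay measuring growth inhibition of human SNB-75 cells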
MOLT-4 = type: functional, cell-based, Homo sapiens; conditions: Homo sapiens, MOLT-4;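 note: growth inhibition of MOLT-4 cells, determined with a cell viability readout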
TE-1 = type: functional, cell-based, Homo sapiens; conditions: Homo sapiens, TE-1;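 note: growth inhibition of the human TE-1 cell line, read out with a cell viability assay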
TGW = type: functional, cell-based, Homo sapiens; conditions: Homo sapiens, TGW;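 note: growth inhibition of human TGW cells, read out with a cell viability assay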
A388 = type: functional, cell-based; conditions: Homo sapiens;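 note: growth inhibition of human A388 cells, read out with a cell viability assay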
EM-2 = type: functional, cell-based, Homo sapiens; conditions: Homo sapiens, EM-2;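 note: growth inhibition of EM-2 cells, read out with a cell viability assay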
TK-10 = type: functional, cell-based, Homo sapiens; conditions: Homo sapiens, TK-10;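 note: growth inhibition of TK-10 cells, read out in a cell viability assay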
ML-2 = type: functional, cell-based, Homo sapiens; conditions: Homo sapiens, ML-2;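 note: growth inhibition of ML-2 cells, measured with a cell viability readout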
SHP77 = type: functional, cell-based, Homo sapiens, SHP-77; conditions: Homo sapiens, SHP77;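 note: growth inhibition of human SHP-77 cells measured by a cell viability assay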
SW 954 = type: functional, cell-based, Homo sapiens; conditions: Homo sapiens, SW 954;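 note: growth inhibition of SW954 human cancer cells, read out as cell viability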
NB13 = type: functional, cell-based, Homo sapiens; conditions: Homo sapiens, NB13;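 note: cell viability readout measuring growth inhibition of human NB13 cells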
Becker = type: functional, cell-based, Homo sapiens; conditions: Homo sapiens, Becker;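 note: growth inhibition of Becker cells, read out with a cell viability assay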
HT-144 = type: functional, cell-based, Homo sapiens; conditions: Homo sapiens, HT-144
DB = type: functional, cell-based, Homo sapiens; conditions: Homo sapiens, DB
NB69 = type: functional, cell-based, Homo sapiens; conditions: Homo sapiens, NB69;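 note: growth inhibition of NB69 cells, determined by a cell viability assay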
SW982 = type: functional, cell-based; conditions: Homo sapiens;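 note: growth inhibition of SW982 cells, read out with a cell viability assay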
LS-123 = type: functional, cell-based, Homo sapiens; conditions: Homo sapiens, LS-123
LB996-RCC = type: functional, cell-based, Homo sapiens; conditions: Homo sapiens, LB996-RCC
AM-38 = type: functional, cell-based, Homo sapiens; conditions: Homo sapiens, AM-38;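 note: growth inhibition of AM-38 cells of human origin, read out by a cell viability assay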
GAK = type: functional, cell-based, Homo sapiens; conditions: Homo sapiens, GAK;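 note: cell growth inhibition read out by a cell viability assay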
LXF-289 cell line = type: functional, cell-based; conditions: Homo sapiens
NCI-H82 = type: functional, cell-based, Homo sapiens; conditions: Homo sapiens, NCI-H82;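 note: growth inhibition of NCI-H82 cells, measured with a cell viability readout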
IST-MEL1 = type: functional, cell-based, Homo sapiens; conditions: Homo sapiens, IST-MEL1;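 note: growth inhibition of the cell line, read out with a cell viability assay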
DEL = type: functional, cell-based, Homo sapiens; conditions: Homo sapiens, DEL;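 note: growth inhibition of the human DEL cell line, read out with a cell viability assay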
LB2518-MEL = type: functional, cell-based; conditions: Homo sapiens;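 note: growth inhibition of human LB2518-MEL cells, measured with a cell viability assay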
CTB-1 = type: functional, cell-based, Homo sapiens; conditions: Homo sapiens, CTB-1
NTERA-2-cl-D1 = type: functional, cell-based, Homo sapiens; conditions: Homo sapiens, NTERA-2-cl-D1;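 note: inhibition of cell growth, measured with a cell viability assay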
SF-539 = type: functional, cell-based, Homo sapiens; conditions: Homo sapiens, SF-539;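 note: Read-out is a cell viability assay, with IC50 reflecting inhibition of cell growth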
Calu-6 = type: functional, cell-based, Homo sapiens; conditions: Homo sapiens, Calu-6;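 note: growth of human Calu-6 cells, read out by a cell viability assay, IC50 marking inhibition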
L-428 = type: functional, cell-based, Homo sapiens; conditions: Homo sapiens, L-428
NMC-G1 = type: functional, cell-based, Homo sapiens; conditions: Homo sapiens, NMC-G1;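 note: growth inhibition of the NMC-G1 cell line, measured with a cell viability read-out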
LB831-BLC = type: functional, cell-based, Homo sapiens; conditions: Homo sapiens, LB831-BLC;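 note: growth inhibition of LB831-BLC cells, read out with a cell viability assay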
TE-9 = type: functional, cell-based, Homo sapiens; conditions: Homo sapiens, TE-9;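 note: cell growth inhibition, measured with a cell viability readout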
SJSA-1 = type: functional, cell-based, Homo sapiens; conditions: Homo sapiens, SJSA-1;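 note: growth inhibition of human SJSA-1 cells, read out through a cell viability measurement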
Ramos-2G6-4C10 = type: functional, cell-based, Homo sapiens; conditions: Homo sapiens, Ramos-2G6-4C10;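 note: growth inhibition of the cell line, measured by a cell viability read-out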
A704 = type: functional, cell-based; conditions: Homo sapiens;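 note: growth inhibition of human A704 cells, read out with a cell viability assay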
D-502MG = type: functional, cell-based, Homo sapiens; conditions: Homo sapiens, D-502MG
ES6 = type: functional, cell-based; conditions: Homo sapiens;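 note: growth inhibition of human ES6 cells, read out with a cell viability assay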
EW-13 = type: functional, cell-based, Homo sapiens; conditions: Homo sapiens, EW-13; read-out: IC50;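 note: growth inhibition of EW-13 cells, read out with a cell viability assay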
ES5 = type: functional, cell-based, Homo sapiens; conditions: Homo sapiens, ES5;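 note: growth inhibition of human ES5 cells, read out by a cell viability assay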
TE-6 = type: functional, cell-based, Homo sapiens; conditions: Homo sapiens, TE-6;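 note: growth inhibition of TE-6 cells, read out with a cell viability assay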
A3-KAW = type: functional, cell-based, Homo sapiens; conditions: Homo sapiens, A3-KAW;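 note: growth inhibition of human A3-KAW cells, read out with a cell viability assay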
SK-LMS-1 = type: functional, cell-based, Homo sapiens; conditions: Homo sapiens, SK-LMS-1;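 note: growth inhibition of human SK-LMS-1 cells, read out with a cell viability assay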
K5 = type: functional, cell-based, Homo sapiens; conditions: Homo sapiens, K5
MS-1 = type: functional, cell-based, Homo sapiens; conditions: Homo sapiens, MS-1
MEG-01 = type: functional, cell-based, Homo sapiens; conditions: Homo sapiens, MEG-01;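 note: growth inhibition of MEG-01 cells, read out by a cell viability assay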
SW684 = type: functional, cell-based, Homo sapiens; conditions: Homo sapiens, SW684; read-out: IC50;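 note: growth inhibition of human SW684 cells, measured by a cell viability assay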
MHH-NB-11 = type: functional, cell-based, Homo sapiens; conditions: Homo sapiens, MHH-NB-11;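 note: growth inhibition of human MHH-NB-11 cells, read out by a cell viability assay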
NCI-H209 = type: functional, cell-based, Homo sapiens; conditions: Homo sapiens, NCI-H209;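 note: growth inhibition of human NCI-H209 cells, measured by a cell viability assay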
ES8 = type: functional, cell-based, Homo sapiens; conditions: Homo sapiens, ES8;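 note: growth inhibition of human ES8 cells, read out with a cell viability assay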

`COc1cc(N2CCC(N3CCN(C)CC3)CC2)ccc1Nc1ncc(Cl)c(Nc2ccccc2S(=O)(=O)C(C)C)n1` [TAE-684] was tested, and the IC50 (HDLM-2) was > 2000 nM, the IC50 (SNB-75) was > 2000 nM and the IC50 (MOLT-4) was > 2000 nM. The IC50 (TE-1) was 691 nM, the IC50 (TGW) was 859 nM and the IC50 (A388) was > 2000 nM. It also gave an IC50 (EM-2) of 1850 nM, an IC50 (TK-10) of 1050 nM and an IC50 (ML-2) of 490 nM. The IC50 (SHP77) was > 2000 nM, the IC50 (SW 954) was 1200 nM and the IC50 (NB13) was 1370 nM. For the same compound, the IC50 (Becker) was > 2000 nM, the IC50 (HT-144) was 1630 nM and the IC50 (DB) was > 2000 nM. For the same compound, the IC50 (NB69) was 318 nM, the IC50 (SW982) was 165 nM and the IC50 (LS-123) was 1520 nM. The IC50 (LB996-RCC) was 694 nM, the IC50 (AM-38) was > 2000 nM and the IC50 (GAK) was […]. The IC50 (LXF-289 cell line) was 1030 nM, the IC50 (NCI-H82) was > 2000 nM and the IC50 (IST-MEL1) was > 2000 nM. The IC50 (DEL) was < 7.81 nM, the IC50 (LB2518-MEL) was > 2000 nM and the IC50 (CTB-1) was > 2000 nM. The IC50 (NTERA-2-cl-D1) was 334 nM, the IC50 (SF-539) was < 7.81 nM and the IC50 (Calu-6) was > 2000 nM. For the same compound, the IC50 (L-428) was > 2000 nM, the IC50 (NMC-G1) was 832 nM and the IC50 (LB831-BLC) was 550 nM. The IC50 (TE-9) was 1110 nM, the IC50 (SJSA-1) was 637 nM and the IC50 (Ramos-2G6-4C10) was > 2000 nM. The IC50 (A704) was 1330 nM, the IC50 (D-502MG) was > 2000 nM and the IC50 (ES6) was 776 nM. The IC50 (EW-13) was > 2000 nM, the IC50 (ES5) was > 2000 nM and the IC50 (TE-6) was > 2000 nM. The IC50 (A3-KAW) was > 2000 nM, the IC50 (SK-LMS-1) was 1160 nM and the IC50 (K5) was 1060 nM. For the same compound, the IC50 (MS-1) was > 2000 nM, the IC50 (MEG-01) was > 2000 nM and the IC50 (SW684) was > 2000 nM. For the same compound, the IC50 (MHH-NB-11) was > 2000 nM, the IC50 (NCI-H209) was > 2000 nM and the IC50 (ES8) was 750 nM.

In the case of `C/C(=C\c1csc(C)n1)[C@@H]1C[C@@H]2O[C@]2(C)CCC[C@H](C)[C@H](O)[C@@H](C)C(=O)C(C)(C)[C@@H](O)CC(=O)O1` [PATUPILONE], the IC50 (HDLM-2) is reported as 19.5 nM, the IC50 (SNB-75) is reported as 3.01 nM and the IC50 (MOLT-4) is reported as 2.52 nM. For the same compound, the IC50 (TE-1) was 2.02 nM, the IC50 (TGW) was 13.5 nM and the IC50 (A388) was 0.94 nM. For the same compound, the IC50 (EM-2) was > 32 nM, the IC50 (TK-10) was 2.05 nM and the IC50 (ML-2) was 2.46 nM. For the same compound, the IC50 (SHP77) was 4.92 nM, the IC50 (SW 954) was 0.436 nM and the IC50 (NB13) was 0.447 nM. It also gave an IC50 (Becker) of 2.86 nM, an IC50 (HT-144) of 1.72 nM and an IC50 (DB) of 7.11 nM. It also gave an IC50 (NB69) of 8.07 nM, an IC50 (SW982) of 0.999 nM and an IC50 (LS-123) of 0.96 nM. It also gave an IC50 (LB996-RCC) of 6.03 nM, an IC50 (AM-38) of 7.56 nM and an IC50 (GAK) of 13.5 nM. For the same compound, the IC50 (LXF-289 cell line) was 0.227 nM, the IC50 (NCI-H82) was > 32 nM and the IC50 (IST-MEL1) was 4.06 nM. The IC50 (DEL) was 4.29 nM, the IC50 (LB2518-MEL) was 17.6 nM and the IC50 (CTB-1) was 8.31 nM. It also gave an IC50 (NTERA-2-cl-D1) of 0.718 nM, an IC50 (SF-539) of 2.27 nM and an IC50 (Calu-6) of 7.14 nM. The IC50 (L-428) was > 32 nM, the IC50 (NMC-G1) was 1.75 nM and the IC50 (LB831-BLC) was 6.03 nM. For the same compound, the IC50 (TE-9) was 1.57 nM, the IC50 (SJSA-1) was 2.09 nM and the IC50 (Ramos-2G6-4C10) was 9.62 nM. For the same compound, the IC50 (A704) was 14.6 nM, the IC50 (D-502MG) was > 32 nM and the IC50 (ES6) was 11.2 nM. The IC50 (EW-13) was 0.903 nM, the IC50 (ES5) was > 32 nM and the IC50 (TE-6) was 23 nM. The IC50 (A3-KAW) was 6.06 nM, the IC50 (SK-LMS-1) was 0.646 nM and the IC50 (K5) was 5.59 nM. For the same compound, the IC50 (MS-1) was 10.2 nM, the IC50 (MEG-01) was 1.53 nM and the IC50 (SW684) was > 32 nM. The IC50 (MHH-NB-11) was 15.2 nM, the IC50 (NCI-H209) was 20.9 nM and the IC50 (ES8) was 1.65 nM.
